Measurements from patent US10703748B2, “Diazanaphthalen-3-yl carboxamides and preparation and use thereof” (Samumed, LLC, priority 2017, dated 2020).
Read-outs that look alike come from different tables or passages of the source.

Assays:
IL-6 = IL-6 inhibition in LPS-stimulated human peripheral blood mononuclear cells (HTRF); conditions: Homo sapiens, PBMC; for EC50: 22 h; for inhibition at 10 µM: read-out: percentage in parentheses after EC50 >10
DYRK1A kinase = DYRK1A kinase (Homo sapiens, UniProt Q13627); assay: DYRK1A kinase activity (Ser/Thr 18 peptide Z-lyte FRET assay); assay type: biochemical; conditions: recombinant DYRK1A, 30 μM ATP, one hour at room temperature;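 also: kinase activity read as coumarin/fluorescein emission ratio after development step, with unphosphorylated and phosphorylated peptide forms setting 0% and 100% controls, values from dose-response curves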
Method: Representative compounds were screened using the assay procedure for DYRK1A kinase activity as described below.
Each compound was dissolved in DMSO as a 10 mM stock and used to prepare compound source plates.
This is a non-radioactive assay using fluorescence resonance energy transfer (FRET) between coumarin and fluorescein to detect kinase activity which is represented as a ratio of coumarin emission/fluorescein emission.
The mixture was allowed to incubate with the representative compounds for one hour at room temperature. All reactions were performed in duplicate. Unphosphorylated (“0% Control”) and phosphorylated (“100% control”) forms of Ser/Thr 18 served as control reactions. Additionally, an 11-point dose-response curve of Staurosporine (1 uM top) was run to serve as a positive compound control.
After incubation, Development Reagent A was diluted in Development Buffer then added to the reaction and allowed to further incubate for one hour at room temperature.
Dose-response curves were generated and inhibitory concentration (IC50) values were calculated using non-linear regression curve fit in the Dotmatics' Studies Software (Bishops Stortford, UK).

[1] = system: α-smooth muscle actin (aSMA) positive LL29 cells; assay: Inhibition of the fibrotic process: αSMA staining in TGF-β1 treated LL29 fibroblasts from IPF patients; conditions: Homo sapiens, Fibroblast; for EC50: 96 h; for inhibition at 10 µM: read-out: percentage in parentheses after EC50 >10
[2] = system: SW480 colon carcinoma cells; assay: Cell viability assay (CellTiter-Glo); conditions: Homo sapiens; for EC50: SW480, 96 h; for inhibition at 10 µM: SW480, read-out: percent inhibition at 10 μM
[3] = system: Tau phosphorylation at Ser396 (pSer396); assay: Tau phosphorylation at Ser396 (pSer396) in SH-SY5Y cells, ELISA / western blot; assay type: cell-based, human; conditions: Homo sapiens;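 also: decrease in pSer396 Tau measured in lysates of treated cells by colorimetric ELISA or chemiluminescent western blot, same pSer396 antibody for both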
Method: Two days before treatment, cells were seeded onto 96 well plates at 5×10^4 cells/well.
The above synthesized compounds were screened using the cell assay procedure to assess decrease Tau phosphorylation at Ser396 (pSer396) described below.
Cells were lysed with RIPA buffer complemented with phosphatase and protease inhibitors then lysates were spun down at 12,000 g for 10 min to remove any cellular debris.

GSK3β kinase = GSK3β kinase (Homo sapiens, UniProt P49841); assay: GSK3β kinase activity (Ser/Thr 09 peptide Z-lyte FRET assay); assay type: biochemical; conditions: recombinant kinase, 46 μM ATP, one hour at room temperature; read-out: EC50
[4] = system: Wnt-responsive Sp5-Luc reporter in SW480 colon carcinoma cells; assay: Screening assay for Wnt activity (Sp5-Luc reporter gene assay); conditions: Homo sapiens; for EC50: SW480; for inhibition at 10 µM: SW480, read-out: percent inhibition at 10 μM
Method: The screening assay for Wnt activity is described as follows.
SW480 colon carcinoma cells were transduced with a lentiviral vector expressing luciferase with a human Sp5 promoter consisting of a sequence of eight TCF/LEF binding sites. […] These stably transduced SW480 cells were expanded in cell culture and used for all further screening activities. Each compound was dissolved in DMSO as a 10 mM stock and used to prepare compound source plates. Serial dilution (1:3, 10-point dose-response curves starting from 10 μM) and compound transfer was performed using the ECHO 550 (Labcyte, Sunnyvale, Calif.) into 384-well white solid bottom assay plates (Greiner Bio-One) with appropriate DMSO backfill for a final DMSO concentration of 0.1%. […] Following incubation, 15 μl of BriteLite Plus luminescence reagent (Perkin Elmer) was added to each well of the 384-well assay plates. The plates were placed on an orbital shaker for 2 min and then luminescence was quantified using the Envision (Perkin Elmer) plate reader.

[5] = system: secreted cytokines TNFα, IL-6 and KC-GRO; assay: Secreted cytokines in Lipopolysaccharide-stimulated BV-2 cells (Table 9 does not say which cytokine); assay type: cell-based, mouse; conditions: Mus musculus, BV-2, 5 h; read-out: EC50
[6] = SH-SY5Y cells, overnight (16-18 h), read-out: pSer396 Tau EC50

Sequence of GSK3β kinase (P49841 whole entry): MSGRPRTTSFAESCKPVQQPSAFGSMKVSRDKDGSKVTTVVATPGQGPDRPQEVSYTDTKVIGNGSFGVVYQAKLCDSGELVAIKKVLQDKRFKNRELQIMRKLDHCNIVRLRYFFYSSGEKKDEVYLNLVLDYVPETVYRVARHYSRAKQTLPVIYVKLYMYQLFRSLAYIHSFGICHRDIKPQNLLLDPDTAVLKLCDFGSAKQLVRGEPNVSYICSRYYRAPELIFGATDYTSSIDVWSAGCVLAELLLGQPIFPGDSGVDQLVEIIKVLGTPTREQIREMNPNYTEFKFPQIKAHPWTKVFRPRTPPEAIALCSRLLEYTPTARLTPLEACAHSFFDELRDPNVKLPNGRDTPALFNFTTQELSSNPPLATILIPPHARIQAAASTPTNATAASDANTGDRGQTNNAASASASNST

Structure (SMILES) | EC50 (IL-6) [µM] | inhibition at 10 µM (IL-6) [%] | EC50 (DYRK1A kinase) [µM] | EC50 [1] [µM] | inhibition at 10 µM [1] [%] | EC50 [2] [µM] | inhibition at 10 µM [2] [%] | EC50 [3, 6] [µM] | EC50 (GSK3β kinase) [µM] | EC50 [4] [µM] | inhibition at 10 µM [4] [%] | EC50 [5] [µM] | EC50 ([3]; SH-SY5Y, read-out: EC50 in the Tau assay) [µM]
COC1CCN(CC(=O)Nc2cc3nc(-c4cn(C)nn4)ccc3cn2)CC1 [Compound 358, 2-(4-Methoxypiperidin-1-yl)-N-(2-(1-methyl-1H-1,2,3-triazol-4-yl)-1,6-naphthyridin-7-yl)acetamide] | > 10 | 2 | 0.364 | > 10 | 9.8 | > 10 | 38 | 1.5 | 0.56 | 0.189 | – | – | –
Cc1ncc(-c2ccc3cnc(NC(=O)Cn4ccnc4)cc3n2)o1 [Compound 589, 2-(1H-Imidazol-1-yl)-N-(2-(2-methyloxazol-5-yl)-1,6-naphthyridin-7-yl) acetamide] | > 10 | 5.9 | 0.05 | > 10 | 41.6 | > 10 | 22.9 | 10 | 0.156 | > 10 | 7.8 | – | –
C[C@H]1CCCN1CC(=O)Nc1ncc2ccc(-c3cnn(C)c3)cc2n1 [Compound 954, (S)—N-(7-(1-Methyl-1H-pyrazol-4-yl)quinazolin-2-yl)-2-(2-methylpyrrolidin-1-yl)acetamide] | > 10 | 5.7 | 0.069 | 2.14 | – | > 10 | 45.1 | 1.7 | 0.195 | > 10 | 29.6 | – | –
Cn1cncc1-c1cc2cc(NC(=O)c3ccc(F)cc3)ncc2cn1 [Compound 4075, 4-Fluoro-N-(6-(1-methyl-1H-imidazol-5-yl)-2,7-naphthyridin-3-yl) benzamide] | > 10 | 8.1 | 0.008 | > 10 | 39.2 | > 10 | 35.4 | – | 0.966 | 5.6 | – | ≥ 10 | –
Cn1cncc1-c1cc2cc(NC(=O)c3cccc(CN4CCCC4)c3)ncc2cn1 [Compound 4077, N-(6-(1-Methyl-1H-imidazol-5-yl)-2,7-naphthyridin-3-yl)-3-(pyrrolidin-1-ylmethyl)benzamide] | > 10 | 3.6 | 0.007 | 1.02 | – | 2.79 | – | – | 2.28 | 0.2 | – | 2.4 | –
CN1CCC(Oc2cccc(C(=O)Nc3cc4cc(-c5cnco5)ncc4cn3)c2)CC1 [Compound 4218, 3-((1-Methylpiperidin-4-yl)oxy)-N-(6-(oxazol-5-yl)-2,7-naphthyridin-3-yl) benzamide] | > 10 | 3.7 | 0.014 | 2.98 | – | 5.96 | – | – | 7.4 | > 10 | 24.9 | 5.1 | –
CN1CCN(c2cc(C(=O)Nc3cc4cc(-c5cncs5)ncc4cn3)ccn2)CC1 [Compound 4257, 2-(4-Methylpiperazin-1-yl)-N-(6-(thiazol-5-yl)-2,7-naphthyridin-3-yl) isonicotinamide] | > 10 | 5.3 | 0.006 | 2.52 | – | 2.46 | – | – | 1.62 | 4.06 | – | 0.626 | –
CO[C@H]1CC[C@H](C(=O)Nc2cc3cc(-c4nnc(C)s4)ncc3cn2)CC1 [Compound 4332, trans-4-Methoxy-N-(6-(5-methyl-1,3,4-thiadiazol-2-yl)-2,7-naphthyridin-3-yl)cyclohexane-1-carboxamide] | > 10 | 0 | 0.048 | > 10 | 23.6 | > 10 | 16.5 | – | 0.828 | > 10 | 9.6 | > 10 | –
Nc1cncc(-c2cc3cc(NC(=O)c4ccc(OC5CCNCC5)cc4)ncc3cn2)c1 [Compound 4431, N-(6-(5-Aminopyridin-3-yl)-2,7-naphthyridin-3-yl)-4-(piperidin-4-yloxy) benzamide] | > 10 | 3.6 | 0.003 | 2.49 | – | 3.15 | – | – | 3.78 | 2.82 | – | 0.04 | –
CN1CCN(c2cc(C(=O)Nc3cc4cc(-c5ccc(N)nc5)ncc4cn3)ccn2)CC1 [Compound 4434, N-(6-(6-Aminopyridin-3-yl)-2,7-naphthyridin-3-yl)-2-(4-methylpiperazin-1-yl)isonicotinamide] | 9.85 | – | 0.012 | 1.6 | – | 5.15 | – | – | > 10 | 8.48 | – | 9.5 | –
CN1CCC(n2cc(C(=O)Nc3cc4cc(-c5cncc6[nH]ccc56)ncc4cn3)cn2)CC1 [Compound 4523, N-(6-(1H-Pyrrolo[2,3-c]pyridin-4-yl)-2,7-naphthyridin-3-yl)-1-(1-methylpiperidin-4-yl)-1H-pyrazole-4-carboxamide] | 3.26 | – | 0.01 | 2.38 | – | 0.513 | – | – | > 10 | 0.718 | – | 1.3 | –
CN1CCC(Nc2cc(C(=O)Nc3cc4nc(-c5cnn(C)c5)ccc4cn3)ccn2)CC1 [Compound 4538, N-(2-(1-Methyl-1H-pyrazol-4-yl)-1,6-naphthyridin-7-yl)-2-((1-methylpiperidin-4-yl)amino)isonicotinamide] | 3.43 | – | 0.003 | 0.708 | – | 0.952 | – | – | > 10 | 0.278 | – | 0.047 | –
CN1CCN(c2ncc(C(=O)Nc3cc4nc(-c5cnn(C)c5)ccc4cn3)s2)CC1 [Compound 4539, N-(2-(1-Methyl-1H-pyrazol-4-yl)-1,6-naphthyridin-7-yl)-2-(4-methylpiperazin-1-yl)thiazole-5-carboxamide] | > 10 | 37.4 | 0.002 | 1.1 | – | 0.782 | – | – | 2.23 | 0.301 | – | 0.08 | –
O=C(Nc1cc2nc(-c3cnco3)ccc2cn1)[C@H]1CC[C@H](CO)CC1 [Compound 4548, trans-4-(Hydroxymethyl)-N-(2-(oxazol-5-yl)-1,6-naphthyridin-7-yl) cyclohexane-1-carboxamide] | > 10 | 3.2 | 0.019 | > 10 | 50 | > 10 | 29.8 | – | 0.785 | > 10 | – | 0.4 | –
O=C(Nc1cc2nc(-c3cnco3)ccc2cn1)c1ccc(OC2CCNCC2)cc1 [Compound 4551, N-(2-(Oxazol-5-yl)-1,6-naphthyridin-7-yl)-4-(piperidin-4-yloxy)benzamide] | 2.99 | – | 0.005 | 0.325 | – | 1.04 | – | – | 4.24 | 1.02 | – | 0.4 | –
CN1CCN(c2ncc(C(=O)Nc3ncc4ccc(-c5cnn(C)c5)cc4n3)s2)CC1 [Compound 4570, N-(7-(1-Methyl-1H-pyrazol-4-yl)quinazolin-2-yl)-2-(4-methylpiperazin-1-yl) thiazole-5-carboxamide] | > 10 | 18.4 | 0.003 | > 10 | 5.5 | 5.62 | – | – | 2.19 | 3.26 | – | 0.128 | –
Cc1nnc(-c2ccc3cnc(NC(=O)CN4C[C@@H]5C[C@H]4CO5)nc3c2)s1 [Compound 4593, 2-((1S,4S)-2-Oxa-5-azabicyclo[2.2.1]heptan-5-yl)-N-(7-(5-methyl-1,3,4-thiadiazol-2-yl)quinazolin-2-yl)acetamide] | > 10 | 4.8 | 0.131 | > 10 | 41.4 | > 10 | 27.4 | – | 0.034 | > 10 | 32.8 | 2.5 | –
Cc1cn2c(n1)CN(C(=O)Nc1cc3cc(-c4cnco4)cnc3cn1)CC2 [Compound 4615] | > 10 | 5.8 | 0.027 | > 10 | 35.6 | 2.67 | – | – | 7.82 | 3.83 | – | 0.275 | –
Cc1ncc(-c2cnc3cnc(NC(=O)C4CCN(C5COC5)CC4)cc3c2)s1 [Compound 4622, N-(3-(2-methylthiazol-5-yl)-1,7-naphthyridin-6-yl)-1-(oxetan-3-yl)piperidine-4-carboxamide] | > 10 | 2.3 | 0.04 | > 10 | 29.4 | > 10 | 27.9 | – | 4.63 | > 10 | 50 | 1.4 | –
COc1ccc2c(c1)[nH]c1c(C)nccc12 [Harmine, reference compound] | – | – | – | – | – | – | – | – | – | – | – | – | > 10
